Results on 26 compounds are retold here after patent US9181237B2, “Substituted berbines and their synthesis” (MALLINCKRODT LLC, priority 2013, dated 2015).

SMILES strings stand for the structures. Some results are limits rather than exact numbers.

Test [1] relates to murine melanoma cell line, B16. Put plainly: B16 cancer cell screening assay: inhibition of B16 proliferation. Type of test: cell-based. As to conditions: B16 cells exposed to several concentrations; for IC50: read-out: B16 Profile IC50. How it is done: (§1) The murine melanoma cell line, B16, was used to screen the activity of compounds comprising Formula (V). B16 cells were grown under standard conditions and exposed to several concentrations of each of the tested compounds.

The subject of test [2] is murine melanoma cell line, B16. Put plainly: B16 cancer cell screening assay: inhibition of lactate dehydrogenase (LDH) release. The format is cell-based. As to conditions: B16 cells exposed to several concentrations. How it is done:
as §1

[3] abbreviates: Mus musculus, B16, inhibition of B16 proliferation.
Where [4] appears, read: Mus musculus, B16, inhibition of lactate dehydrogenase (LDH) release.
Where [5] appears, read: inhibition of lactate dehydrogenase (LDH) release.
Setting [6] is: inhibition of B16 proliferation.

Regarding `CC[C@@H]1c2c(ccc(OC)c2O)C[C@H]2c3ccc(OC)cc3CCN12` [M-R-0001], the values for the IC50 in test [1] (setting [3]) and in test [2] (setting [4]) were above 600 µM and 175 µM, respectively.

As for `COc1ccc2c(c1)CCN1[C@H]2Cc2cc(O)c(OC)cc2[C@H]1C1CCC1` [M-R-0002], the half-maximal inhibitory concentration (IC50) in test [1] (setting [3]) and in test [2] (setting [4]) was 200 µM in each case.

In the case of `COc1ccc2c(c1)CCN1[C@H]2Cc2ccc(OC)c(O)c2[C@H]1C1CCC1` [M-R-0003], the IC50 was above 600 µM in test [1] (setting [3]) and 150 µM in test [2] (setting [4]).

Consider `COc1ccc2c(c1)CCN1Cc3cc(OC)c(O)cc3C[C@@H]21` [M-R-0004], for which the IC50 in test [1] (setting [3]) and in test [2] (setting [4]) was above 600 µM throughout.

As for `COc1ccc2c(c1)CCN1[C@H](c3ccccc3)c3cc(OC)c(O)cc3C[C@@H]21` [M-R-0005], the IC50 worked out at 35 µM in test [1] (setting [3]) and 30 µM in test [2] (setting [4]).

Regarding `COc1ccc2c(c1)CCN1[C@@H](c3ccccc3)c3cc(OC)c(O)cc3C[C@@H]21` [M-R-0006], the IC50 in test [1] (setting [3]) and in test [2] (setting [4]) was 35 µM each time.

Take `CCC[C@@H]1c2cc(OC)c(O)cc2C[C@H]2c3ccc(OC)cc3CCN12` [M-R-0007]: in test [1] (setting [3]), the IC50 was above 400 µM. The “B16 LDH IC50” value in test [2] (setting [5]) is given as “Inactive”.

As for `COc1ccc2c(c1)CCN1Cc3c(ccc(OC)c3O)C[C@@H]21` [M-R-0008], the 50% inhibitory concentration (IC50) in test [1] (setting [3]) is 38 µM; in test [2] (setting [4]), above 320 µM.

In the case of `COc1ccc2c(c1)CCN1Cc3cc(OC)c(O)cc3C[C@H]21` [M-R-0009], in test [1] (setting [6]), the “B16 Profile IC50” value is listed as “Inactive”. In addition, the “B16 LDH IC50” value in test [2] (setting [5]) is listed as “Inactive”.

Turning to `COc1ccc2c(c1)CCN1Cc3c(ccc(OC)c3O)C[C@H]21` [M-R-0010], in test [1] (setting [3]), the IC50 was 300 µM. For the same compound, the “B16 LDH IC50” value in test [2] (setting [5]) is on record as “Inactive”.

In the case of `COc1cc2c(cc1OC)CN1CCc3cc4c(cc3[C@@H]1C2)OCO4` [M-R-0011], the IC50 in test [1] (setting [3]) is 120 µM; in test [2] (setting [4]), 70 µM.

Take `COc1ccc2c(c1O)[C@H](Cc1ccccc1)N1CCc3cc4c(cc3[C@@H]1C2)OCO4` [M-R-0012]: the concentration for half-maximal inhibition (IC50) in test [1] (setting [3]) was above 600 µM; in test [2] (setting [4]) it was above 700 µM.

For the compound `COc1cc2c(cc1O)[C@@H](Cc1ccccc1)N1CCc3cc4c(cc3[C@@H]1C2)OCO4` [M-R-0013], the concentration for half-maximal inhibition (IC50) was found to be 75 µM in test [1] (setting [6]) and 700 µM in test [2] (setting [4]).

In the case of `COc1ccc2c(c1)CCN1[C@@H](c3ccccc3)c3cc(O)c(O)cc3C[C@@H]21` [M-R-0014], the figures for the IC50 in test [1] (setting [3]) and in test [2] (setting [4]) were 10 µM and 70 µM, respectively.

As for `COc1ccc2c(c1)CCN1[C@H](c3ccccc3)c3cc(O)c(O)cc3C[C@@H]21` [M-R-0015], the IC50 is 25 µM in test [1] (setting [3]) and 130 µM in test [2] (setting [4]).

As to `COc1ccc2c(c1)CCN1[C@H](Cc3ccccc3)c3c(ccc(OC)c3O)C[C@@H]21` [M-R-0016], the IC50 stood at 75 µM in test [1] (setting [3]) and 700 µM in test [2] (setting [4]).

For the compound `COc1ccc2c(c1)CCN1[C@H](Cc3ccccc3)c3cc(OC)c(O)cc3C[C@@H]21` [M-R-0017], the results for the IC50 in test [1] (setting [3]) and in test [2] (setting [4]) were 55 µM and 60 µM, respectively.

With `COc1cc2c(cc1O)C[C@H]1c3cc4c(cc3CCN1[C@H]2c1ccccc1)OCO4` [M-R-0018], the IC50 turned out to be 35 µM in test [1] (setting [3]) and 30 µM in test [2] (setting [4]).

On to `COc1cc2c(cc1O)C[C@H]1c3cc4c(cc3CCN1[C@@H]2c1ccccc1)OCO4` [M-R-0019], for which the IC50 in test [1] (setting [3]) was 45 µM; in test [2] (setting [4]), 50 µM.

With `COc1ccc2c(c1)CCN1[C@@H](c3ccccc3Br)c3c(O)c(OC)cc(Br)c3C[C@@H]21` [M-R-0020], the results for the IC50 in test [1] (setting [3]) and in test [2] (setting [4]) were 18 µM and 30 µM, respectively.

Take `COc1ccc2c(c1)CCN1[C@H](Cc3ccccc3)c3c(O)c(OC)cc(Br)c3C[C@@H]21` [M-R-0021]: the IC50 in test [1] (setting [3]) was 65 µM; in test [2] (setting [4]), around 350 µM.

With `COc1ccc2c(c1)CCN1[C@@H](c3ccccc3N)c3c(O)c(OC)cc(Br)c3C[C@@H]21` [M-R-0022], the IC50 came to 25 µM in test [1] (setting [3]) and 30 µM in test [2] (setting [4]).

For `COc1ccc2c(c1)CCN1[C@H](c3ccccc3)c3c(O)c(OC)cc(Br)c3C[C@@H]21` [M-R-0023], the IC50 in test [1] (setting [3]) was 27 µM; in test [2] (setting [4]), 40 µM.

`COc1ccc2c(c1)CCN1[C@H](c3ccccc3)c3c(ccc(OC)c3O)C[C@@H]21` [M-R-0024]: the IC50 in test [1] (setting [3]) was found to be 60 µM; in test [2] (setting [4]) it was 70 µM.

For `COc1cc2c(cc1O)[C@@H](Cc1ccccc1)N1CCc3cc4c(cc3[C@@H]1C2)OCO4` [M-R-0025], the results for the IC50 in test [1] (setting [6]) and in test [2] (setting [5]) were above 160 µM and around 350 µM, respectively.

In the case of `COc1cc2c(cc1O)[C@H](Cc1ccccc1)N1CCc3cc4c(cc3[C@@H]1C2)OCO4` [M-R-0026], the IC50 in test [1] (setting [3]) came out at 55 µM; in test [2] (setting [4]) it was 60 µM.
